Source: PMC4109680, “Identification and Preclinical Pharmacology of the γ-Secretase Modulator BMS-869780” (International Journal of Alzheimer's Disease, 2014)
Where two headings read alike, the source gives them in different places.

Assays:
brain Aβ1-42 and Aβ1-40 = assay: Rat 4-day repeat dose, residual brain Aβ by ELISA and immunodepletion; type: in vivo
Protocol: Figure 7 BMS-869780 dose response and evaluation of residual Aβ levels in rat brain. (a) Groups of rats received intraperitoneal (IP) injections of vehicle or BMS-869780 at doses of 100, 30, 10, 3, 1, and 0.3 mg/kg. Additional rats were dosed with GSI BMS-698861 at 30 mg/kg as a positive control for Aβ-lowering. Group sizes were seven rats for each dose of BMS-869780 and 14 rats for vehicle and GSI dose groups. Brain and plasma were harvested 5 hours after dosing. Brain Aβ1-42 (green), brain Aβ1-40 (blue), brain Aβ1-x (black), and plasma Aβ1-40 (red) were determined. Values are expressed as % relative to vehicle group mean. Whiskers represent standard error. ⊗Aβ1-x was not determined in the groups dosed at 3, 1, and 0.3 mg/kg. (b) Brain Aβ1-40 was plotted against brain Aβ1-42 for each rat dosed with BMS-869780 (black ▼) and for each rat dosed with vehicle (grey ●). Values are expressed as % relative to vehicle group mean. Whiskers represent standard error. […] The respective 95% confidence intervals were 618–1053 nM, 704–1264 nM, and 44–158 nM. (d) Rats were dosed once daily with BMS-869780 for 4 days at 10 and 100 mg/kg or vehicle, plasma, and brain samples were taken 5 hours after the last dose, and immunodepletion of brain extracts was carried out prior to Aβ1-42 ELISA assays. […] After immunodepletion, Aβ1-42 was assayed by ELISA. (e) Same as described in (d), except that Aβ1-40 ELISA was carried out following the immunodepletion.
For immunodepletion of rat brain Aβ, solid phase extracts were pooled within treatment groups. The pools were divided into equal aliquots and incubated with or without monoclonals 565, TSD, 4G8, or 6E10 (10 μg) at 4°C overnight. Protein G beads (50 μL; EZview, Sigma) were added, and incubation was continued with agitation for 1 hour. The beads were removed by centrifugation, and Aβ1-40 and Aβ1-42 in the unbound fraction were quantified by ELISA, as described above.
(§1) All experimental procedures with animals followed National Institutes of Health guidelines and were authorized by and in compliance with policies of the Bristol-Myers Squibb Animal Use and Care Committee. Mice and rats were housed with a 6:00 AM to 6:00 PM light/dark cycle and allowed free access to food and water. For 3xTg mice, BMS-869780 was dosed in three-month-old females by oral gavage at 6 mL/kg in vehicle consisting of 84% polyethylene glycol average molecular weight of 400 (PEG-400), 15% EtOH, and 1% Tween-80 (w/w/w). The compound was dissolved in EtOH and then diluted with PEG-400 and Tween, after which the vial was sealed, vortexed, and sonicated at 56°C for 1 hour. Animals were euthanized by asphyxiation in CO2. Blood was collected by cardiac puncture and placed into ethylene-diaminetetraacetic acid microtainer tubes for the preparation of plasma. The cerebellum was collected for the determination of compound concentration, and the remaining brain was separated into left and right halves before freezing in liquid nitrogen. For the rat time course study, 8- to 12-week-old female Sprague-Dawley rats were obtained from Charles River Laboratories (Wilmington, MA), BMS-869780 was dosed orally at 4 mL/kg, and brain and plasma samples were collected as described for the 3xTg mice. For the four day repeat dose rat study, BMS-869780 was given by oral gavage in vehicle consisting of PEG-400, PEG-200, D-α-tocopheryl polyethylene glycol succinate, Solutol HS 15, in the ratio 80 : 10 : 5 : 5 (w/w/w/w). Methods for the pharmacokinetics studies in rat, dog, and monkey are described below.

[1] = Prediction of human PK and dose by allometric scaling combined with rat PK/PD
Protocol: Interspecies allometric scaling adjusted for brain weight was used to predict human CLTp, while simple allometric scaling was used to predict Vss. Briefly, the Vss and brain weight adjusted CLTp values from nonclinical species were plotted against body weight on a log-log scale to yield estimates of Vss and CLTp × brain weight in humans. The estimated CLTp × brain weight for human was adjusted for the brain weight of humans to yield a predicted CLTp. […] Noncompartmental analysis was performed using WinNonlin software (version 5.0; Pharsight Corporation, Mountain View, CA). The k a for each species was obtained from the IV and PO (nanosuspensions) of rat, dog, and cynomolgus monkey by deconvolution of plasma concentration-time data using Kinetica (version 5.0; Seattle, WA). The bioavailability was estimated from the nanosuspensions from rat, dog, and cynomolgus monkeys. The average k a and F, along with the Vss and CLTp from allometric scaling, were incorporated into a two-compartment model to predict the human oral plasma concentration-time profiles.

[2] = Plasma exposure in rat 4-day oral dosing experiment; type: in vivo; settings: for AUC(0-t): read-out: AUC (0–24 h); for concentration at 4 day: oral, read-out: Terminal concentration day 4
Protocol: as §1
As a preliminary evaluation of safety in vivo, male and female rats were given 10, 30, and 100 mg/kg BMS-869780 orally once daily for 4 days. Endpoints included brain Aβ1-42, as described above (Figures 7(d) and 7(e)), plasma PK on day 1 and day 3 (Table 4), and histopathology for duodenum, liver, and kidney.

[3] = Plasma protein bound fraction, mouse; type: in vitro ADME
[4] = averaged across depleted samples in both dose groups
[5] = four daily doses, 10 and 100 mg/kg, 5 hours after last dose
[6] = Human 700 mg PO suspension (predicted steady state)
[7] = female, rat, plasma, po, 10 mg/kg, Female, Day 1
[8] = female, rat, plasma, po, 10 mg/kg, Female, Day 3
[9] = female, rat, plasma, po, 30 mg/kg, Female, Day 1
[10] = female, rat, plasma, po, 30 mg/kg, Female, Day 3
[11] = female, rat, plasma, po, 100 mg/kg, Female, Day 1
[12] = female, rat, plasma, po, 100 mg/kg, Female, Day 3
[13] = male, rat, plasma, po, 10 mg/kg, Male, Day 1
[14] = male, rat, plasma, po, 10 mg/kg, Male, Day 3
[15] = male, rat, plasma, po, 30 mg/kg, Male, Day 1
[16] = male, rat, plasma, po, 30 mg/kg, Male, Day 3
[17] = male, rat, plasma, po, 100 mg/kg, Male, Day 1
[18] = male, rat, plasma, po, 100 mg/kg, Male, Day 3

Compound: COc1cc(Nc2nc3n(n2)CCCC[C@H]3c2ccc(F)cc2)ccc1-n1cnc(Cl)c1 [BMS-869780]
- residual signal for Aβ1-40 after immunodepletion (brain Aβ1-42 and Aβ1-40; [4]): 4%
- residual signal for Aβ1-42 after immunodepletion (brain Aβ1-42 and Aβ1-40; [4]): 16%
- residual pool of Aβ1-40 (brain Aβ1-42 and Aβ1-40; four daily doses): ~7%
- residual pool of Aβ1-42 (brain Aβ1-42 and Aβ1-40; four daily doses): ca. 15%
- residual ELISA signal for Aβ1-40 (brain Aβ1-42 and Aβ1-40; [5]): 19%
- residual ELISA signal for Aβ1-42 (brain Aβ1-42 and Aβ1-40; [5]): 31%
- Brain Aβ ABEC 24 hr Aβ1-42 [1, 6]: 25%
- Plasma AUC 0–24 hr [1, 6]: 17.8 µM·h
- Cmax ([1]; plasma, oral, Human 700 mg once daily (predicted steady state)): 1.27 µM
- AUC(0-t) ([1]; plasma, Human 700 mg PO suspension (predicted steady state), read-out: Plasma AUC 0–24 hr): 17.6 µM·h
- Terminal concentration day 4 ([2]; 100 mg/kg, Female): 13.7 (±0.9) μM
- AUC (0–24 h) ([2]; 100 mg/kg, Female, Day 3): 316.4 (±77.0) μM·h
- Terminal concentration day 4 ([2]; 100 mg/kg, Male): 9.2 (±3.2) μM
- change of exposure on repeat dosing ([2]; day 1 versus day 3): no loss of exposure between day 1 and day 3
- Cmax [2, 7]: 2.9 µM
- Tmax [2, 7]: 7 h
- AUC(0-t) [2, 7]: 41 µM·h
- Cmax [2, 8]: 2.6 µM
- Tmax [2, 8]: 5 h
- AUC(0-t) [2, 8]: 25 µM·h
- Cmax [2, 9]: 8.2 µM
- Tmax [2, 9]: 5 h
- AUC(0-t) [2, 9]: 152 µM·h
- Cmax [2, 10]: 14.4 µM
- Tmax [2, 10]: 3 h
- AUC(0-t) [2, 10]: 255 µM·h
- Cmax [2, 11]: 10.6 µM
- Tmax [2, 11]: 24 h
- AUC(0-t) [2, 11]: 206 µM·h
- Cmax [2, 12]: 15.5 µM
- Tmax [2, 12]: 4 h
- AUC(0-t) [2, 12]: 316 µM·h
- exposures achieved ([2]; highest dose of 100 mg/kg): > 200 µM·h
- Cmax [2, 13]: 2 µM
- Tmax [2, 13]: 5 h
- AUC(0-t) [2, 13]: 20.2 µM·h
- Cmax [2, 14]: 1.9 µM
- Tmax [2, 14]: 5 h
- AUC(0-t) [2, 14]: 17.5 µM·h
- Cmax [2, 15]: 6.1 µM
- Tmax [2, 15]: 8 h
- AUC(0-t) [2, 15]: 95.2 µM·h
- Cmax [2, 16]: 10.4 µM
- Tmax [2, 16]: 3 h
- AUC(0-t) [2, 16]: 129 µM·h
- Cmax [2, 17]: 7.7 µM
- Tmax [2, 17]: 19 h
- AUC(0-t) [2, 17]: 168 µM·h
- Cmax [2, 18]: 13.2 µM
- Tmax [2, 18]: 7 h
- AUC(0-t) [2, 18]: 217 µM·h
- concentration at 4 day ([2]; rat, plasma, 10 mg/kg, Female): 3 µM
- concentration at 4 day ([2]; rat, plasma, 10 mg/kg, Male): 2.4 µM
- concentration at 4 day ([2]; rat, plasma, 30 mg/kg, Female): 12 µM
- concentration at 4 day ([2]; rat, plasma, 30 mg/kg, Male): 8.9 µM
- AUC ([2]; rat, plasma, po, four daily doses of 10 mg/kg): 17.5 µM·h
- protein bound fraction [3]: 99.6%
